The values that follow come from ChEMBL document CHEMBL3045191, “Effect of soil type on adsorption-desorption, mobility, and activity of the herbicide norflurazon” (J Agric Food Chem, 2004).

Each structure is given as a SMILES string.

What all share (format): functional, organism-based
Test [1] deals with Glycine max. In words: Herbicidal activity against Glycine max (soybean) grown in sandy clay loam soil at pH 5.7 assessed as chlorophyll bleaching effect on shoots compound treated to soil measured after 10 days relative to untreated control.
Test [2] concerns Glycine max. As to the kind of experiment: Herbicidal activity against Glycine max (soybean) grown in loam soil at pH 5.5 assessed as chlorophyll bleaching effect on shoots compound treated to soil measured after 10 days relative to untreated control.
Test [3] concerns Glycine max. In words: Herbicidal activity against Glycine max (soybean) grown in clay soil at pH 8.0 assessed as chlorophyll bleaching effect on shoots compound treated to soil measured after 10 days relative to untreated control.
For test [4], the system named is Glycine max. As to the kind of experiment: Herbicidal activity against Glycine max (soybean) grown in loam soil at pH 5.8 assessed as chlorophyll bleaching effect on shoots compound treated to soil measured after 10 days relative to untreated control.
Test [5] relates to Glycine max. As to the kind of experiment: Herbicidal activity against Glycine max (soybean) grown in slit loam soil at pH 6.0 assessed as chlorophyll bleaching effect on shoots compound treated to soil measured after 10 days relative to untreated control.
In test [6] the test system is Glycine max. In words: Herbicidal activity against Glycine max (soybean) grown in sandy soil at pH 8.0 assessed as chlorophyll bleaching effect on shoots compound treated to soil measured after 10 days relative to untreated control.
Test [7] deals with Glycine max. In words: Herbicidal activity against Glycine max (soybean) grown in slit loam soil at pH 7.6 assessed as chlorophyll bleaching effect on shoots compound treated to soil measured after 10 days relative to untreated control.
In test [8] the test system is Glycine max. As to the kind of experiment: Herbicidal activity against Glycine max (soybean) grown in sandy clay loam soil at pH 7.9 assessed as chlorophyll bleaching effect on shoots compound treated to soil measured after 10 days relative to untreated control.

Regarding `CNc1cnn(-c2cccc(C(F)(F)F)c2)c(=O)c1Cl` [NORFLURAZONE], the IC50 turned out to be 0.43 mg/kg in the test with Glycine max [1]; 0.87 mg/kg with Glycine max [2]; 1.04 mg/kg with Glycine max [3]; 1.98 mg/kg in the test with Glycine max [4]; 1.94 mg/kg in the test on Glycine max [5]; 0.08 mg/kg in the test with Glycine max [6]. Moreover, the IC50 in the test on Glycine max [7] was 1.68 mg/kg; in the test with Glycine max [8] it was 0.22 mg/kg.
